# Source: ChEMBL document CHEMBL1201861, “Genomics of Drug Sensitity in Cancer screening data, Wellcome Trust Sanger Institute”
# pIC50: −log10 of the molar value.
# Columns and labels:
# Assay in all cases: cells
# Assay type in all cases: functional, cell-based
# Settings in all cases: Homo sapiens
# [1] = system: HCC 2998;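 note: growth inhibition of human HCC2998 cells, measured with a cell viability read-out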
# Description: SANGER: Inhibition of human HCC2998 cell growth in a cell viability assay.
# [2] = system: AN3-CA;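 note: growth inhibition of human AN3-CA cells measured by a cell viability assay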
# Description: SANGER: Inhibition of human AN3-CA cell growth in a cell viability assay.
# [3] = system: NY
# Description: SANGER: Inhibition of human NY cell growth in a cell viability assay.
# [4] = system: SNU-423
# Description: SANGER: Inhibition of human SNU-423 cell growth in a cell viability assay.
# [5] = system: UACC-62;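 note: growth inhibition of human UACC-62 cells, read out by a cell viability assay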
# Description: SANGER: Inhibition of human UACC-62 cell growth in a cell viability assay.
# [6] = system: M059J;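 note: growth inhibition of M059J cells, read out with a cell viability assay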
# Description: SANGER: Inhibition of human M059J cell growth in a cell viability assay.
# [7] = system: SKG-IIIa;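 note: cell growth inhibition, read out with a cell viability assay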
# Description: SANGER: Inhibition of human SKG-IIIa cell growth in a cell viability assay.
# [8] = system: NCI-H661;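 note: cell viability assay read-out, IC50 being the concentration that inhibits growth of the cells by half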
# Description: SANGER: Inhibition of human NCI-H661 cell growth in a cell viability assay.
# [9] = system: NCI-H460;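 note: cell viability assay scoring growth inhibition of human NCI-H460 cells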
# Description: SANGER: Inhibition of human NCI-H460 cell growth in a cell viability assay.
# [10] = system: KOSC-2;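 note: growth inhibition of KOSC-2 cells, read out by a cell viability assay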
# Description: SANGER: Inhibition of human KOSC-2 cell growth in a cell viability assay.
# [11] = system: C3A;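 note: growth inhibition of C3A human cells, quantified with a cell viability readout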
# Description: SANGER: Inhibition of human C3A cell growth in a cell viability assay.
# [12] = system: SW756;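 note: growth inhibition of human SW756 cells, read out with a cell viability assay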
# Description: SANGER: Inhibition of human SW756 cell growth in a cell viability assay.
# [13] = system: JEG-3;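 note: growth inhibition of human JEG-3 cells, read out with a cell viability assay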
# Description: SANGER: Inhibition of human JEG-3 cell growth in a cell viability assay.
# [14] = system: SW1710;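 note: growth inhibition of SW1710 cells, determined with a cell viability assay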
# Description: SANGER: Inhibition of human SW1710 cell growth in a cell viability assay.
# [15] = system: MDA-MB-231
# Description: SANGER: Inhibition of human MDA-MB-231 cell growth in a cell viability assay.
# [16] = system: MDA-MB-415
# [17] = system: HEC-1;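 note: growth inhibition of the cell line, read out with a cell viability assay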
# Description: SANGER: Inhibition of human HEC-1 cell growth in a cell viability assay.
# [18] = system: TCC-SUP;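 note: growth inhibition of TCC-SUP cells, read out with a cell viability assay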
# Description: SANGER: Inhibition of human TCCSUP cell growth in a cell viability assay.
# [19] = system: NCI-H1993;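 note: growth inhibition of the cancer cell line, assessed with a cell viability assay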
# Description: SANGER: Inhibition of human NCI-H1993 cell growth in a cell viability assay.
# [20] = system: CAL-27;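 note: Viability-based readout, IC50 reflecting inhibition of CAL-27 cell growth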
# Description: SANGER: Inhibition of human CAL-27 cell growth in a cell viability assay.
# [21] = system: WM-115
# Description: SANGER: Inhibition of human WM-115 cell growth in a cell viability assay.
# [22] = system: Huh-7;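 note: HuH-7 cell growth inhibition, read out with a cell viability assay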
# Description: SANGER: Inhibition of human HuH-7 cell growth in a cell viability assay.
# [23] = system: COLO-680N;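 note: cell viability assay used to measure inhibition of COLO-680N cell growth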
# Description: SANGER: Inhibition of human COLO-680N cell growth in a cell viability assay.
# [24] = system: RT-112
# Description: SANGER: Inhibition of human RT-112 cell growth in a cell viability assay.
# [25] = system: NCI-H650;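 note: growth inhibition of NCI-H650 cells, read out by a viability assay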
# Description: SANGER: Inhibition of human NCI-H650 cell growth in a cell viability assay.
# [26] = system: NCI-H1623;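 note: cell viability assay used as the read-out for growth inhibition of NCI-H1623 cells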
# Description: SANGER: Inhibition of human NCI-H1623 cell growth in a cell viability assay.
# [27] = system: HCC1569;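 note: growth inhibition of human HCC1569 cells, read out with a cell viability assay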
# Description: SANGER: Inhibition of human HCC1569 cell growth in a cell viability assay.
# [28] = system: BXPC-3;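 note: growth inhibition of human BxPC-3 cells, read out by a cell viability assay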
# Description: SANGER: Inhibition of human BxPC-3 cell growth in a cell viability assay.
# [29] = system: SK-MEL-30;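 note: growth inhibition of SK-MEL-30 cells, determined with a cell viability assay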
# Description: SANGER: Inhibition of human SK-MEL-30 cell growth in a cell viability assay.
# [30] = system: ME-180;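 note: cell viability assay measuring growth inhibition of ME-180 cells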
# Description: SANGER: Inhibition of human ME-180 cell growth in a cell viability assay.
# [31] = system: HuO9;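 note: growth inhibition of HuO9 cells, read out with a cell viability assay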
# Description: SANGER: Inhibition of human HuO9 cell growth in a cell viability assay.
# [32] = system: YKG-1;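 note: cell growth inhibition, read out with a viability assay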
# Description: SANGER: Inhibition of human YKG-1 cell growth in a cell viability assay.
# [33] = system: NB12;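 note: growth inhibition of human NB12 cells, read out by a cell viability assay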
# Description: SANGER: Inhibition of human NB12 cell growth in a cell viability assay.
# [34] = system: HT-29;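 note: growth inhibition of human HT-29 cells, read out by a cell viability assay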
# Description: SANGER: Inhibition of human HT-29 cell growth in a cell viability assay.
# [35] = system: KYSE-410;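 note: growth inhibition of KYSE-410 cells, measured through a cell viability readout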
# Description: SANGER: Inhibition of human KYSE-410 cell growth in a cell viability assay.
# [36] = system: BHT-101
# Description: SANGER: Inhibition of human BHT-101 cell growth in a cell viability assay.
# [37] = system: Panc1005;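 note: growth inhibition of human PANC-10-05 cells, measured by a cell viability assay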
# Description: SANGER: Inhibition of human PANC-10-05 cell growth in a cell viability assay.
# [38] = system: T-24;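 note: growth inhibition of T-24 cells, read out with a cell viability assay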
# Description: SANGER: Inhibition of human T-24 cell growth in a cell viability assay.
# [39] = system: Hs-578T
# Description: SANGER: Inhibition of human Hs-578-T cell growth in a cell viability assay.
# [40] = system: HT55;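 note: cell viability readout measuring growth inhibition of human HT55 cells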
# Description: SANGER: Inhibition of human HT55 cell growth in a cell viability assay.
# [41] = system: UO-31;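 note: cell viability assay measuring inhibition of cell growth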
# Description: SANGER: Inhibition of human U031 cell growth in a cell viability assay.
# [42] = system: UACC-893
# Description: SANGER: Inhibition of human UACC-893 cell growth in a cell viability assay.
smiles,measurement,setting,value
NC1(c2ccc(-c3nc4ccn5c(=O)[nH]nc5c4cc3-c3ccccc3)cc2)CCC1 [MK-2206],pIC50,[1],< 5.40
same,pIC50,[2],5.44
same,pIC50,[3],< 5.40
same,pIC50,[4],5.54
same,pIC50,[5],< 5.40
same,pIC50,[6],< 5.40
same,pIC50,[7],< 5.40
same,pIC50,[8],< 5.40
same,pIC50,[9],< 5.40
same,pIC50,[10],< 5.40
same,pIC50,[11],< 5.40
same,pIC50,[12],< 5.40
same,pIC50,[13],< 5.40
same,pIC50,[14],5.46
same,pIC50,[15],< 5.40
same,pIC50,[16],6.20
same,pIC50,[17],< 5.40
same,pIC50,[18],< 5.40
same,pIC50,[19],< 5.40
same,pIC50,[20],< 5.40
same,pIC50,[21],< 5.40
same,pIC50,[22],5.51
same,pIC50,[23],< 5.40
same,pIC50,[24],5.45
same,pIC50,[25],< 5.40
same,pIC50,[26],5.47
same,pIC50,[27],< 5.40
same,pIC50,[28],< 5.40
same,pIC50,[29],< 5.40
same,pIC50,[30],5.80
same,pIC50,[31],6.03
same,pIC50,[32],< 5.40
same,pIC50,[33],< 5.40
same,pIC50,[34],< 5.40
same,pIC50,[35],< 5.40
same,pIC50,[36],6.28
same,pIC50,[37],< 5.40
same,pIC50,[38],5.61
same,pIC50,[39],5.67
same,pIC50,[40],< 5.40
CC1(C)CCC(c2ccc(Cl)cc2)=C(CN2CCN(c3ccc(C(=O)NS(=O)(=O)c4ccc(N[C@H](CCN5CCOCC5)CSc5ccccc5)c(S(=O)(=O)C(F)(F)F)c4)cc3)CC2)C1 [NAVITOCLAX],pIC50,[1],5.97
same,pIC50,[2],< 5.70
same,pIC50,[3],< 5.70
same,pIC50,[4],5.75
same,pIC50,[5],< 5.70
same,pIC50,[6],< 5.70
same,pIC50,[7],< 5.70
same,pIC50,[8],< 5.70
same,pIC50,[9],< 5.70
same,pIC50,[10],< 5.70
same,pIC50,[11],< 5.70
same,pIC50,[12],< 5.70
same,pIC50,[13],< 5.70
same,pIC50,[14],< 5.70
same,pIC50,[15],< 5.70
same,pIC50,[16],5.86
same,pIC50,[41],< 5.70
same,pIC50,[17],< 5.70
same,pIC50,[18],< 5.70
same,pIC50,[19],< 5.70
same,pIC50,[20],< 5.70
same,pIC50,[21],6.56
same,pIC50,[22],5.78
same,pIC50,[23],< 5.70
same,pIC50,[24],< 5.70
same,pIC50,[25],< 5.70
same,pIC50,[26],< 5.70
same,pIC50,[27],6.60
same,pIC50,[28],< 5.70
same,pIC50,[29],< 5.70
same,pIC50,[30],< 5.70
same,pIC50,[31],6.57
same,pIC50,[32],< 5.70
same,pIC50,[33],6.64
same,pIC50,[34],< 5.70
same,pIC50,[35],< 5.70
same,pIC50,[36],< 5.70
same,pIC50,[42],< 5.70
same,pIC50,[37],< 5.70
same,pIC50,[38],< 5.70
same,pIC50,[39],< 5.70
same,pIC50,[40],< 5.70
CS(=O)(=O)N1CCN(Cc2cc3nc(-c4cccc5[nH]ncc45)nc(N4CCOCC4)c3s2)CC1 [PICTILISIB],pIC50,[1],< 5.40
same,pIC50,[2],6.47
same,pIC50,[3],< 5.40
same,pIC50,[4],5.62
same,pIC50,[5],< 5.40
same,pIC50,[6],< 5.40
same,pIC50,[7],5.58
same,pIC50,[8],< 5.40
same,pIC50,[9],< 5.40
same,pIC50,[10],< 5.40
same,pIC50,[11],< 5.40
same,pIC50,[12],< 5.40
same,pIC50,[13],< 5.40
same,pIC50,[14],5.98
same,pIC50,[15],< 5.40
same,pIC50,[16],5.83
same,pIC50,[41],< 5.40
same,pIC50,[17],< 5.40
same,pIC50,[18],< 5.40
same,pIC50,[19],< 5.40
same,pIC50,[20],< 5.40
same,pIC50,[21],5.97
same,pIC50,[22],5.92
same,pIC50,[23],< 5.40
same,pIC50,[24],< 5.40
same,pIC50,[25],< 5.40
same,pIC50,[26],6.52
same,pIC50,[27],< 5.40
same,pIC50,[28],< 5.40
same,pIC50,[29],< 5.40
same,pIC50,[30],5.71
same,pIC50,[31],6.69
same,pIC50,[32],5.52
same,pIC50,[33],5.55
same,pIC50,[34],< 5.40
same,pIC50,[35],< 5.40
same,pIC50,[36],6.26
same,pIC50,[42],< 5.40
same,pIC50,[37],< 5.40
same,pIC50,[38],< 5.40
same,pIC50,[39],5.92
same,pIC50,[40],< 5.40
CN(C)CCOc1ccc(-c2nc(-c3ccncc3)c(-c3ccc4c(c3)CC/C4=N\O)[nH]2)cc1 [SB590885],pIC50,[1],< 5.30
same,pIC50,[2],< 5.30
same,pIC50,[3],< 5.30
same,pIC50,[4],< 5.30
same,pIC50,[5],< 5.30
same,pIC50,[6],< 5.30
same,pIC50,[7],< 5.30
same,pIC50,[8],< 5.30
same,pIC50,[9],< 5.30
same,pIC50,[10],< 5.30
same,pIC50,[11],< 5.30
same,pIC50,[12],< 5.30
same,pIC50,[13],< 5.30
same,pIC50,[14],< 5.30
same,pIC50,[15],< 5.30
same,pIC50,[16],< 5.30
same,pIC50,[41],< 5.30
same,pIC50,[17],< 5.30
same,pIC50,[18],< 5.30
same,pIC50,[19],< 5.30
same,pIC50,[20],< 5.30
same,pIC50,[21],6.07
same,pIC50,[22],5.44
same,pIC50,[23],< 5.30
same,pIC50,[24],< 5.30
same,pIC50,[25],< 5.30
same,pIC50,[26],< 5.30
same,pIC50,[27],< 5.30
same,pIC50,[28],< 5.30
same,pIC50,[29],5.81
same,pIC50,[30],< 5.30
same,pIC50,[31],< 5.30
same,pIC50,[32],< 5.30
same,pIC50,[33],< 5.30
same,pIC50,[34],< 5.30
same,pIC50,[35],< 5.30
same,pIC50,[36],5.79
same,pIC50,[37],< 5.30
same,pIC50,[38],< 5.30
same,pIC50,[39],< 5.30
same,pIC50,[40],< 5.30
